Assay results: DBAASP
≈ marks a conversion by molar mass, not a printed value.

Tests used:
Experiment in all cases: ≥ marks a high value that may be exact or a test limit, other limits are often not marked, values filed in µg/mL are converted to µM
[1] = system: Pseudomonas aeruginosa ATCC 27853
[2] = system: Xanthomonas axonopodis pv. glycines ISBF 327
[3] = system: Escherichia coli ATCC 25922
[4] = system: Pseudomonas aeruginosa CGMCC 1.860
[5] = system: Staphylococcus epidermidis CICC 23664
[6] = system: Pseudomonas aeruginosa 0108
[7] = system: Staphylococcus epidermidis
[8] = system: Pseudomonas syringae pv. syringae EPS 94
[9] = system: Xanthomonas campestris pv. Vesicatoria 2133-2
[10] = system: Erwinia amylovora PMV 6076
[11] = system: Salmonella enterica subsp. enterica serovar Typhi DMST 22842
[12] = system: Staphylococcus epidermidis ATCC 12228
[13] = system: Staphylococcus aureus ATCC 25923
[14] = system: Escherichia coli NCIMB 11843
[15] = system: Staphylococcus aureus Newman
[16] = system: Cronobacter sakazakii DPC 6440
[17] = system: Cronobacter sakazakii DSM 4485
[18] = system: Klebsiella pneumoniae NCIMB 13218
[19] = system: Staphylococcus aureus NCTC 8325-4
[20] = system: Staphylococcus aureus SA113
[21] = system: Cronobacter sakazakii ATCC BAA-894
[22] = system: Pseudomonas fluorescens NCIMB 9046
[23] = system: Salmonella enterica subsp. enterica serovar Typhimurium LT2
[24] = system: Staphylococcus aureus RN4220
[25] = system: Cronobacter muytjensii ATCC 51329
[26] = system: Staphylococcus aureus RF122
[27] = system: Listeria monocytogenes LO28

CC[C@H](C)[C@H](NC(=O)[C@H](CCCN=C(N)N)NC(=O)[C@H](CCCCN)NC(=O)[C@H](CC(C)C)NC(=O)[C@H](CO)NC(=O)[C@@H](NC(=O)[C@@H](NC(=O)[C@H](CCCCN)NC(=O)[C@@H](NC(=O)CNC(=O)[C@@H](NC(=O)[C@H](CO)NC(=O)[C@H](CC(C)C)NC(=O)[C@H](Cc1ccccc1)NC(=O)[C@H](CCSC)NC(=O)[C@H](CCCCN)NC(=O)[C@H](CCCCN)NC(=O)[C@@H](NC(=O)[C@H](CCC(N)=O)NC(=O)[C@H](Cc1cnc[nH]1)NC(=O)[C@H](Cc1ccccc1)NC(=O)[C@H](CCCCN)NC(=O)CN)[C@@H](C)CC)C(C)C)C(C)C)C(C)C)[C@@H](C)O)C(=O)N[C@@H](CCC(N)=O)C(=O)N[C@@H](Cc1ccccc1)C(=O)NCC(=O)N[C@@H](CC(=O)O)C(=O)N[C@@H](Cc1ccccc1)C(N)=O [GKFHQIKKMFLSVGVKVTSLKRIQFGDF]
MIC [1]: 20 µM (≈ 64.8 µg/mL)
MIC [2]: 10 µM (≈ 32.4 µg/mL)
MIC [3]: 20 µM (≈ 64.8 µg/mL)

CC[C@H](C)[C@H](N)C(=O)N[C@@H](CCCCN)C(=O)N[C@@H](CCCCN)C(=O)N[C@H](C(=O)N[C@@H](CC(C)C)C(=O)N[C@@H](CO)C(=O)N[C@@H](CCCCN)C(=O)N[C@H](C(=O)N[C@@H](CCCCN)C(=O)N[C@@H](CCCCN)C(=O)N[C@@H](CC(C)C)C(=O)N[C@@H](Cc1c[nH]c2ccccc12)C(=O)N[C@@H](CCCCN)C(N)=O)[C@@H](C)CC)[C@@H](C)CC [IKKILSKIKKLWK]
MIC [4]: 25 µM (≈ 40.6 µg/mL)
MIC [5]: 12.5 µM (≈ 20.3 µg/mL)
MIC [6]: 25 µM (≈ 40.6 µg/mL)
MIC [7]: 12.5 µM (≈ 20.3 µg/mL)

CC[C@H](C)[C@H](N)C(=O)N[C@@H](CCCCN)C(=O)N[C@@H](CCCCN)C(=O)N[C@H](C(=O)N[C@@H](CC(C)C)C(=O)N[C@@H](CO)C(=O)N[C@@H](CCCCN)C(=O)N[C@H](C(=O)N[C@@H](CCCCN)C(=O)N[C@@H](CCCCN)C(=O)N[C@@H](Cc1c[nH]c2ccccc12)C(=O)N[C@@H](CC(C)C)C(=O)N[C@@H](CCCCN)C(N)=O)[C@@H](C)CC)[C@@H](C)CC [IKKILSKIKKWLK]
MIC [4]: 12.5 µM (≈ 20.3 µg/mL)
MIC [5]: 3.12 µM (≈ 5.07 µg/mL)
MIC [6]: 25 µM (≈ 40.6 µg/mL)
MIC [7]: 12.5 µM (≈ 20.3 µg/mL)

CC[C@H](C)[C@H](NC(=O)[C@H](CCCCN)NC(=O)[C@H](CCCCN)NC(=O)[C@H](Cc1ccccc1)NC(=O)[C@H](CC(C)C)NC(=O)[C@H](CCCCN)NC(=O)[C@@H](N)CCCCN)C(=O)N[C@@H](CC(C)C)C(=O)N[C@@H](CCCCN)C(=O)N[C@@H](Cc1ccc(O)cc1)C(=O)N[C@@H](CC(C)C)C(=O)N[C@@H](C)C(=O)NCC(=O)N1CCC[C@H]1C(=O)N[C@@H](C)C(=O)N[C@@H](CCCCN)C(=O)N[C@@H](Cc1ccccc1)C(=O)N[C@@H](CC(C)C)C(=O)N[C@@H](Cc1cnc[nH]1)C(=O)N[C@@H](CO)C(=O)N[C@@H](C)C(=O)N[C@@H](CCCCN)C(=O)N[C@@H](CCCCN)C(=O)N[C@@H](CC(=O)O)C(=O)N[C@@H](CCC(=O)O)C(=O)N[C@@H](CC(C)C)C(=O)O [KKLFKKILKYLAGPAKFLHSAKKDEL]
MIC [8]: 8.66 µM (≈ 26.1 µg/mL)
MIC [9]: 6.12 µM (≈ 18.5 µg/mL)
MIC [10]: 3.54 µM (≈ 10.7 µg/mL)

CC(C)[C@H](NC(=O)CNC(=O)[C@@H](N)CC(N)=O)C(=O)N[C@@H](CCC(N)=O)C(=O)N1CCC[C@H]1C(=O)N[C@@H](CCCCN)C(=O)N[C@@H](Cc1ccc(O)cc1)C(=O)N[C@@H](CCCCN)C(=O)N[C@@H](Cc1c[nH]c2ccccc12)C(=O)N[C@@H](Cc1c[nH]c2ccccc12)C(=O)N[C@@H](CCCCN)C(=O)N[C@@H](Cc1c[nH]c2ccccc12)C(=O)N[C@@H](Cc1c[nH]c2ccccc12)C(=O)N[C@@H](CCCCN)C(=O)N[C@@H](CCCCN)C(=O)N[C@@H](Cc1c[nH]c2ccccc12)C(=O)N[C@@H](Cc1c[nH]c2ccccc12)C(=O)N[C@@H](Cc1c[nH]c2ccccc12)C(N)=O [NGVQPKYKWWKWWKKWWW]
MIC [11]: 8.78 µM (≈ 23 µg/mL)
MIC [12]: 8.78 µM (≈ 23 µg/mL)
MIC [3]: 4.2 µM (≈ 11 µg/mL)
MIC [13]: > 34.7 µM

CC(C)[C@H](NC(=O)CNC(=O)[C@@H](N)CC(N)=O)C(=O)N[C@@H](CCC(N)=O)C(=O)N1CCC[C@H]1C(=O)N[C@@H](CCCCN)C(=O)N[C@@H](Cc1ccc(O)cc1)C(=O)N[C@@H](CCCN=C(N)N)C(=O)N[C@@H](Cc1c[nH]c2ccccc12)C(=O)N[C@@H](Cc1c[nH]c2ccccc12)C(=O)N[C@@H](CCCN=C(N)N)C(=O)N[C@@H](Cc1c[nH]c2ccccc12)C(=O)N[C@@H](Cc1c[nH]c2ccccc12)C(=O)N[C@@H](CCCN=C(N)N)C(=O)N[C@@H](CCCN=C(N)N)C(=O)N[C@@H](Cc1c[nH]c2ccccc12)C(=O)N[C@@H](Cc1c[nH]c2ccccc12)C(=O)N[C@@H](Cc1c[nH]c2ccccc12)C(=O)O [NGVQPKYRWWRWWRRWWW]
MIC [11]: ≥ 33.3 µM
MIC [12]: 33.3 µM (≈ 91 µg/mL)
MIC [3]: > 33.3 µM
MIC [13]: > 33.3 µM

CC(C)C[C@H](NC(=O)[C@H](C)NC(=O)[C@H](CCC(=O)O)NC(=O)[C@H](CC(N)=O)NC(=O)[C@H](CC(C)C)NC(=O)[C@@H](N)C(C)C)C(=O)N[C@@H](CC(C)C)C(=O)N[C@@H](CCCN=C(N)N)C(=O)O [VLNEALLR]
MIC [14]: ≥ 2500 µM
MIC [15]: ≥ 1250 µM
MIC [1]: 32 µM (≈ 29.7 µg/mL)
MIC [16]: ≥ 625 µM
MIC [17]: ≥ 1250 µM
MIC [18]: ≥ 2500 µM
MIC [19]: ≥ 1250 µM
MIC [20]: ≥ 1250 µM
MIC [21]: ≥ 1250 µM
MIC [22]: ≥ 2500 µM
MIC [23]: ≥ 1250 µM
MIC [24]: ≥ 1250 µM
MIC [25]: ≥ 625 µM
MIC [26]: ≥ 1250 µM

CC(C)C[C@H](NC(=O)[C@H](CC(C)C)NC(=O)[C@H](CC(N)=O)NC(=O)[C@H](CCC(=O)O)NC(=O)[C@H](CC(N)=O)NC(=O)[C@H](CC(C)C)NC(=O)[C@@H](N)C(C)C)C(=O)N[C@@H](C)C(=O)O [VLNENLLA]
MIC [14]: ≥ 2500 µM
MIC [15]: ≥ 1250 µM
MIC [1]: 32 µM (≈ 28.3 µg/mL)
MIC [16]: ≥ 2500 µM
MIC [17]: ≥ 2500 µM
MIC [18]: ≥ 2500 µM
MIC [19]: ≥ 1250 µM
MIC [20]: ≥ 1250 µM
MIC [21]: ≥ 2500 µM
MIC [22]: ≥ 2500 µM
MIC [23]: ≥ 1250 µM
MIC [24]: ≥ 1250 µM
MIC [25]: ≥ 2500 µM
MIC [26]: ≥ 1250 µM

CC[C@H](C)[C@H](NC(=O)[C@H](Cc1c[nH]c2ccccc12)NC(=O)[C@@H]1CCCN1C(=O)[C@H](CCCCN)NC(=O)[C@H](CCSC)NC(=O)[C@H](C)NC(=O)[C@H](CCCCN)NC(=O)[C@H](CCC(N)=O)NC(=O)[C@H](Cc1cnc[nH]1)NC(=O)[C@H](CCC(N)=O)NC(=O)[C@H](Cc1ccc(O)cc1)NC(=O)[C@@H](N)C(C)C)C(=O)N[C@@H](CCC(N)=O)C(=O)N1CCC[C@H]1C(=O)N[C@@H](CCCCN)C(=O)N[C@H](C(=O)N[C@@H](CCCCN)C(=O)N[C@H](C(=O)N[C@H](C(=O)N1CCC[C@H]1C(=O)N[C@@H](Cc1ccc(O)cc1)C(=O)N[C@H](C(=O)N[C@@H](CCCN=C(N)N)C(=O)N[C@@H](Cc1ccc(O)cc1)C(=O)N[C@@H](CC(C)C)C(=O)O)C(C)C)[C@@H](C)CC)C(C)C)[C@@H](C)O [VYQHQKAMKPWIQPKTKVIPYVRYL]
MIC [16]: ≥ 312 µM
MIC [27]: ≥ 78.1 µM
